A short description of assay [1]: Luminescence Cell-Based Dose Confirmation HTS to Identify Inhibitors of Platelet Dense Granule Release. [Related pubchem assays: 1663 (Primary HTS), 1678 (Summary of Project)]. The class given is functional.
The target in assay [2] is Luciferin 4-monooxygenase (Photinus pyralis, UniProt P08659). Put plainly: inhibition of purified Photinus pyralis luciferase – biochemical, luminescence, dose response (AID 1891).
Assay [3] can be described thus: Counterscreen for activators of the function of SWI/SNF related, matrix associated, actin dependent regulator of chromatin, subfamily a, member 2 (SMARCA2, BRM): Luminescence-based cell-based high throughput dose response assay to identify non-selective compounds using the VP16 reporter assay. Type of assay: functional.
Assay [4] has as its target SWI/SNF-related matrix-associated actin-dependent regulator of chromatin subfamily A member 2 (Homo sapiens, UniProt P51531). In words: Luminescence-based cell-based high throughput dose response assay to identify activators of the function of SWI/SNF related, matrix associated, actin dependent regulator of chromatin, subfamily a, member 2 (SMARCA2, BRM). The class given is functional.

A short description of assay [5]: HIV-1 AD8 envelope cell-cell fusion blockers – cherry-pick, dose response (AID 652062).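 Note: luciferase signal from cell-cell fusion driven by HIV-1 clade B AD8 Env; potency is for inhibitors of fusion seen as a drop in luminescence.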 Type of assay: functional, cell-based.
Assay [6] addresses T1, Corticotropin-releasing factor receptor 2/Corticotropin-releasing factor-binding protein (Homo sapiens, UniProt P24387+Q13324).
T1 sequence (Q13324 whole entry): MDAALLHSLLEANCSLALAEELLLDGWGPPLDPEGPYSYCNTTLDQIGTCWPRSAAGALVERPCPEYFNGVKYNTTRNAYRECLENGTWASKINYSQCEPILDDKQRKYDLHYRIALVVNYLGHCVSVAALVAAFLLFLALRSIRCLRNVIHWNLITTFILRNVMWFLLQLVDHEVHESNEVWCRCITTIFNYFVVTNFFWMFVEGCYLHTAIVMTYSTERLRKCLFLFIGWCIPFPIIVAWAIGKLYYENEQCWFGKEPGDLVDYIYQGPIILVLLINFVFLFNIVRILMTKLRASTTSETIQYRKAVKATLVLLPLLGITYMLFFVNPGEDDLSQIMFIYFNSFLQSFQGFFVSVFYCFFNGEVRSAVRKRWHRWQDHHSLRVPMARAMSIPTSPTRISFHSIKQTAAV
T1 sequence (P24387 whole entry): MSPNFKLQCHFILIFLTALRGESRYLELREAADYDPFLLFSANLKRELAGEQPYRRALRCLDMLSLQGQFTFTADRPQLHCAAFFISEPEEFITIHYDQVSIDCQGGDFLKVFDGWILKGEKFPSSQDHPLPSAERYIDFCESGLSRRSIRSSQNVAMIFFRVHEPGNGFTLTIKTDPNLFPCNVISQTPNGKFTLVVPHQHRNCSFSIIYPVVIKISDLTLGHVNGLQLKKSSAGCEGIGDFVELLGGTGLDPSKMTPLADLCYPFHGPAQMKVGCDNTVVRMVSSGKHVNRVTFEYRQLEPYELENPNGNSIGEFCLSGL
Put plainly: activators of CRF receptor 2 with binding protein – uHTS hits, confirmation (AID 602473). Type of assay: functional. The note with it: read-out: EC50_Mean.

The nature of assay [7]: blockers of HIV-1 envelope-mediated cell-cell fusion – cherry-pick, dose response (AID 652057). The class given is functional, cell-based.
Assay [8] in a line: blockers of HIV-1 ZM109 envelope-driven cell-cell fusion – HeLa effector, CEM target cells, luciferase, cherry-pick, dose response (AID 652058).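 Note: luciferase signal from HIV-1 Env mediated cell-cell fusion of effector and target cells.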 The class given is functional, cell-based.
Assay [9] is described as follows: off-target signal loss in HeLa-CEM21 co-culture – HeLa F-luc CTL cells, cherry-picked, counter-screen for HIV-1 Env fusion inhibitor project, dose response (AID 652040).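 Note: potency for signal decrease marking cytotoxic or nonspecific inhibition.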 The class given is functional, cell-based. (A counterscreen serves to expose hits that act by an unwanted route or on another target.)
Assay [10] is described as follows: viability loss in CEM21 cells – cell-based, CellTiter-Glo luminescence, cherry-picked, cytotoxicity control for viral fusion inhibitor project, dose response (AID 652042).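 Note: potency for signal decrease meaning cytotoxicity.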 Type of assay: functional. (In general: ATP-based viability assays read luminescence as a measure of living cells.)
The target of assay [11] is T2, Estrogen receptor (Homo sapiens, UniProt P03372).
T2 sequence (P03372 whole entry): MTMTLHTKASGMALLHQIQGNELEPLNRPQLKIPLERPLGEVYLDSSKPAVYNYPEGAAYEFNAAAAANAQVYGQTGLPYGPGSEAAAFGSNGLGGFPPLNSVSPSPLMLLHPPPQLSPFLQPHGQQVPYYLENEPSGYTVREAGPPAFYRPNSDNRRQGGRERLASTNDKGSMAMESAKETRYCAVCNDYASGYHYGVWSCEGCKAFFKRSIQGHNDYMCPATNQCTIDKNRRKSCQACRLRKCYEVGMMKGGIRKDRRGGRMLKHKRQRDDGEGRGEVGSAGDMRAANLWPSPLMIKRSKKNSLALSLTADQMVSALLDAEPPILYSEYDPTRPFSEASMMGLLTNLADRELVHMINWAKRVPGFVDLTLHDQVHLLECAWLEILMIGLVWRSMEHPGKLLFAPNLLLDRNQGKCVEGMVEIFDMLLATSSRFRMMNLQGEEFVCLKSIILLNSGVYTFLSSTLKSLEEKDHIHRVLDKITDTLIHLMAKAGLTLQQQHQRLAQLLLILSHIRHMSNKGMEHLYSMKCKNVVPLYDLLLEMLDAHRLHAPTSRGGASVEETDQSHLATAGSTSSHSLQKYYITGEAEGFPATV

Assay [12] has as its target T3, Protein Tat (Human immunodeficiency virus type 1 group M subtype B (isolate HXB2)(HIV-1), UniProt P04608).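 Note: tat binding to TAR RNA read out by fluorescence polarization.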
T3 sequence (P04608 whole entry): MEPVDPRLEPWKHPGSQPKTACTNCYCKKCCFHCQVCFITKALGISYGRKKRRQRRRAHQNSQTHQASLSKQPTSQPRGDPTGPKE
Type of assay: functional.

Assay [13] deals with T4, Estrogen receptor beta (Homo sapiens, UniProt Q92731). Put plainly: blockers of SRC-3 recruitment to ERβ – biochemical, ELISA, streptavidin-HRP readout, orthogonal assay, confirmation (AID 1060). In general terms: ELISA stands for enzyme-linked immunosorbent assay.
T4 sequence (Q92731 whole entry): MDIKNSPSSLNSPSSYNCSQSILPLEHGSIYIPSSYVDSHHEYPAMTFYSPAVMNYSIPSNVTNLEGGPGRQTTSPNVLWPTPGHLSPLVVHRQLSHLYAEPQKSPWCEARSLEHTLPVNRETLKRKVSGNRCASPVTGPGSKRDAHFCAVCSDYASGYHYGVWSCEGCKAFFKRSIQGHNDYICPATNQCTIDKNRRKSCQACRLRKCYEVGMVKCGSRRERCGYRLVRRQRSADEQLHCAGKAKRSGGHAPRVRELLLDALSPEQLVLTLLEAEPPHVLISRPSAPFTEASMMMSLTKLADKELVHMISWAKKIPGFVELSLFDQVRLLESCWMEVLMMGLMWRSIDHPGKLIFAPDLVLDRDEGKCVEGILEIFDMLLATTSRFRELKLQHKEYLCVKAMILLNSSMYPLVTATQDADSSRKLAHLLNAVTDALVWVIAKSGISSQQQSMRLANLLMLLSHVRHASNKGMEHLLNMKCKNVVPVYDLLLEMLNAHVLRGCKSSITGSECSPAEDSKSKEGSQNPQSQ
Assay [14] concerns the target T4, Estrogen receptor beta.
The nature of assay [15]: Luminescence-based counterscreen assay for KLF5 inhibitors: dose response cell-based high throughput screening assay to identify cytotoxic compounds using the IEC-6 intestinal epithelial cell line. [Related pubchem assays: 1700 (Primary screen.), 1834 (Confirmation screen.), 1858 (Summary AID.), 1905 (Counterscreen.)]. The class given is functional.
Assay [16] can be described thus: P. falciparum Dd2 growth inhibitors, dose response, SYBR Green, cherry-picked samples (AID 1159567). Type of assay: functional, cell-based.
The nature of assay [17]: general mammalian cell viability loss – inhibitor set, cherry-pick, set 2, cytotoxicity control for miR-122 modulator project, dose response (AID 720697). Type of assay: functional, cell-based.
Assay [18] in a line: toxicity to human hepatoma HepG2 cells – cell-based, cherry-picked samples, cytotoxicity control, dose response (AID 1159577). The class given is functional.
Assay [19] in a line: general mammalian cell viability loss – activator set, cherry-pick, cytotoxicity control for miR-122 modulator project, dose response (AID 720690).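 Note: HEK293T human cells scored for general mammalian cytotoxicity.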 The class given is functional, cell-based.
Assay [20] addresses T5, Calpain-2 catalytic subunit (Sus scrofa, UniProt P43367).
T5 sequence (P43367 whole entry): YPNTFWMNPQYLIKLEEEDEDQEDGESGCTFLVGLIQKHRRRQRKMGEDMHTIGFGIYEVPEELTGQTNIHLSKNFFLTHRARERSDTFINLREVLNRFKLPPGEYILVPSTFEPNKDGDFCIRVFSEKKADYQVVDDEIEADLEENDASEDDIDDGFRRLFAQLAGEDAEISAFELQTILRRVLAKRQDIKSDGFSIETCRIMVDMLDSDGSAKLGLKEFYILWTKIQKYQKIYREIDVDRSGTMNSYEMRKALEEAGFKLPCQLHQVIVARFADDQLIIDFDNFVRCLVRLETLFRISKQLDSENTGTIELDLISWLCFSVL
In words: m-calpain protease blockers, concentration series – biochemical, fluorogenic peptide substrate, dose response (AID 1420). The class given is functional.

Assay [21] has as its system INS1. In words: INS-1E survival protection against cytokine death – cell-based, luminescence, retest, dose response (AID 449756).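 Note: cell death triggered by IL-1 beta plus TNF-alpha plus IFN-gamma mixture; protective hits raise ATP signal compared with cytokine alone wells.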 The class given is functional. The note with it: Rattus norvegicus.
In assay [22] the target is T6, Carboxy-terminal domain RNA polymerase II polypeptide A small phosphatase 1 (Homo sapiens, UniProt Q9GZU7).
T6 sequence (Q9GZU7 whole entry): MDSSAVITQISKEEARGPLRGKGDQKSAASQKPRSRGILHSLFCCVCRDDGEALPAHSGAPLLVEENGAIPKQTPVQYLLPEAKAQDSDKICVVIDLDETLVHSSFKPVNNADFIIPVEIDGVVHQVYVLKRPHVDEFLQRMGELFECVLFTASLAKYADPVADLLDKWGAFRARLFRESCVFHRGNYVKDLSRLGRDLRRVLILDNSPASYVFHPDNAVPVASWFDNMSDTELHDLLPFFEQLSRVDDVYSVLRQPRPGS
Put plainly: CTDSP1 inhibitors, concentration-response, biochemical, absorbance readout, ultra-high-throughput screen actives (AID 540297). The class given is functional.

In general, AC50 refers to the midpoint of the concentration-response curve, whichever way the signal moves. Usually IC50 stands for the concentration needed to halve the response being measured.

Activity calls are given as the source filed them.

SWI/SNF-related matrix-associated actin-dependent regulator of chromatin subfamily A member 2, sequence (P51531 whole entry): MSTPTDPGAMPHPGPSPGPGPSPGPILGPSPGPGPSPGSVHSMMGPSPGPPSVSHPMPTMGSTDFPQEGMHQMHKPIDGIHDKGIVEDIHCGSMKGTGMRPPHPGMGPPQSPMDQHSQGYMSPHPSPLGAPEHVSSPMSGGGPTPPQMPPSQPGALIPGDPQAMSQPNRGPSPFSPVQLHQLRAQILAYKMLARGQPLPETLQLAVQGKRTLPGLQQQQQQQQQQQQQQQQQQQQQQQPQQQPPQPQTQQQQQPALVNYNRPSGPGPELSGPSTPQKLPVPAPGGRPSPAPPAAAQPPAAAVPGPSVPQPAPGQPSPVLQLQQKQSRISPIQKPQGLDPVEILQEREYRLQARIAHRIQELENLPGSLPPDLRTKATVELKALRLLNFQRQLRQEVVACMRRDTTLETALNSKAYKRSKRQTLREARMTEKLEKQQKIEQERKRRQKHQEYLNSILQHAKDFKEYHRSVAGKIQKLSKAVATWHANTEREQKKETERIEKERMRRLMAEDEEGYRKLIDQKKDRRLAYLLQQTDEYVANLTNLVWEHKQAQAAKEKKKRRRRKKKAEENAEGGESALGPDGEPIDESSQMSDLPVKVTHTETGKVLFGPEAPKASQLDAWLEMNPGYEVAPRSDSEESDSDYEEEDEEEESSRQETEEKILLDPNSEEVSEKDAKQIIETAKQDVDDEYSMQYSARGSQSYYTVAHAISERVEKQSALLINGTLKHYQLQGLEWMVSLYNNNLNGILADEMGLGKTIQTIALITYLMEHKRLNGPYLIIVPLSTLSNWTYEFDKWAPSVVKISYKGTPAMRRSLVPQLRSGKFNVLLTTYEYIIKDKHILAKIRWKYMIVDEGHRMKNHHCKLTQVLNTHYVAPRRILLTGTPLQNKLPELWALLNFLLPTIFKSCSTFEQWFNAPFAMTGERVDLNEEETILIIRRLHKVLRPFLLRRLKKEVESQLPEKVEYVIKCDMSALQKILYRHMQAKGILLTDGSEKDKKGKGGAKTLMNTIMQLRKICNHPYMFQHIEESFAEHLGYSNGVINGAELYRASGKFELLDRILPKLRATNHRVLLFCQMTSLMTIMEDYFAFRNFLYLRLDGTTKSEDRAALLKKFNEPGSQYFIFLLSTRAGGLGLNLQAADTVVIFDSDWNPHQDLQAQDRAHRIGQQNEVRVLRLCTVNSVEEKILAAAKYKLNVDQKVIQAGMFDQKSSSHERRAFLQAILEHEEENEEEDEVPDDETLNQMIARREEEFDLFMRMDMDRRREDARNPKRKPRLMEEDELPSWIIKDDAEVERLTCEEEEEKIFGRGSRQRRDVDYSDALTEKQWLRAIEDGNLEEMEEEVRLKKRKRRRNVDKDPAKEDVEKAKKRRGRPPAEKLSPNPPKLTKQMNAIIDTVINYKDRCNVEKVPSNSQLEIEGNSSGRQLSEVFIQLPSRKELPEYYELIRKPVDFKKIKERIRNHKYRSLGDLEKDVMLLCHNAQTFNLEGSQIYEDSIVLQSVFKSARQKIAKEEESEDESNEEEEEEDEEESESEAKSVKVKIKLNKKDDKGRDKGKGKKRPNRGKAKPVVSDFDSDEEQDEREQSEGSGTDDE
Luciferin 4-monooxygenase, sequence (P08659 whole entry): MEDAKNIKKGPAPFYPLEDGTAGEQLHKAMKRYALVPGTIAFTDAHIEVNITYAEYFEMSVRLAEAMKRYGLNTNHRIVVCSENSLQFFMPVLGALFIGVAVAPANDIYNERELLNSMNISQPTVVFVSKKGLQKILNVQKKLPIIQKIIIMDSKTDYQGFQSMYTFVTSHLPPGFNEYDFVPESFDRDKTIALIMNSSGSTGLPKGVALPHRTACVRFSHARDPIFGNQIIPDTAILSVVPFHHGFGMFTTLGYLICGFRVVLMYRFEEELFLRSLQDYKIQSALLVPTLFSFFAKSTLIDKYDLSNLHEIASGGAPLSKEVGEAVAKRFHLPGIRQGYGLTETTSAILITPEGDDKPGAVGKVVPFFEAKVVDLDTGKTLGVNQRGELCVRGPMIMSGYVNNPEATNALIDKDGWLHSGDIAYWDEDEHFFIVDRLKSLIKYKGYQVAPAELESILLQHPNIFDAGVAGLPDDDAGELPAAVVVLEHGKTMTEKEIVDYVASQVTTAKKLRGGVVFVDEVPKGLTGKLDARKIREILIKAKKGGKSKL

`CCN(CC)c1ccc(Nc2cc3n(c(=O)n2)CCc2cc(OC)c(OC)cc2-3)cc1`: the EC50 was > 112 µM (not active) in assay [1], > 112 µM (not active) in assay [2], > 91.2 µM (inactive) in assay [3] and > 91.2 µM (inactive) in assay [4].

Take `CC1=CC(C)(C)N(C(=O)c2ccccc2)c2ccc(C)cc21`: the AC50 is 42.2 µM (active) in [5], 42.6 µM (active) in [7], 7.28 µM (active) in assay [8] and 29.7 µM (active) in [9]. Besides, the EC50 in [6] was 6.89 µM (active).

With `CC[C@@]12C(=O)N(c3cccc(Cl)c3)C(=O)N1[C@H](c1ccc(Br)cc1)[C@@H]1C(=O)N(C(C)(C)C)C(=O)[C@@H]12`, the AC50 in assay [5] was 0.342 µM (active); in assay [10], 65.5 µM (active); in [7], < 0.26 µM (active); in assay [8], < 0.26 µM (active); in assay [9], < 0.26 µM (active).

On to `O=C(OCc1cc(=O)oc2cc(O)ccc12)c1cc(S(=O)(=O)N2CCOCC2)ccc1F`, for which the EC50 in [3] and in [4] was > 91.2 µM (inactive) in each case.

With `CC(=O)NC(C)C(=O)OCC(=O)Nc1ccc(Br)cc1` (stereo not drawn), in [11], the IC50 was > 50 µM (not active).

For `O=C(NNC(S)=Nc1ccc(F)cc1F)c1ccco1`, the EC50 in [3] and in [4] was > 91.2 µM (inactive) throughout.

For the molecule `CCCCN1C(=O)NC(=O)C2(Cc3ccccc3N3CCOCC32)C1=O` (stereo not drawn), in assay [12], the IC50 was > 100 µM (active).

Turning to `O=S(=O)(NCc1csc(-c2cccnc2)n1)c1ccc(Cl)s1`, the figures for the IC50 in assay [11], in assay [13] and in assay [14] were 13.6 µM (active), 99.4 µM (not active) and 11.8 µM (active), respectively.

With `CC(C)[C@H](N)C(=O)N[C@H]1CCC2C3CC=C4C[C@@H](O)CC[C@]4(C)C3CC[C@@]21C` (stereo partly drawn), the EC50 in [3] and in assay [4] was > 91.2 µM (inactive) in each case.

Turning to `CN(C)c1ccc(/C=N/Nc2cccc(C(=O)O)c2)cc1`, the IC50 in [15] is > 39.8 µM (not active).

`C[C@H]1CN([C@@H](C)CO)C(=O)c2c(c3ccccc3n2C)-c2ccccc2CO[C@@H]1CN(C)C(=O)Cc1ccccc1`: the AC50 was < 0.26 µM (active) in assay [5], 27.4 µM (active) in [10], < 0.26 µM (active) in assay [7] and 3.45 µM (active) in assay [16].

`CN(C[C@H]1N[C@@H](CO)[C@H]1c1ccc(-c2ccccc2)cc1)C(=O)C1CCC1`: the AC50 in assay [17] was 10.2 µM (active).

For `CC(C)CC#Cc1ccc([C@H]2[C@@H](CO)N3CCCCN(S(=O)(=O)Cc4ccccc4)C[C@H]23)cc1`, the AC50 is 8.87 µM (active) in [18], 15 µM (active) in assay [19] and 5.43 µM (active) in assay [16].

As for `CC(=N)/C(C#N)=C(/O)CSc1nnc(COc2ccccc2Cl)o1`, the IC50 is 37.2 µM (not active) in [11], < 0.4 µM (not active) in [20], 5.64 µM (not active) in assay [13] and 8.99 µM (active) in assay [14].

As for `O=C(C[C@H]1C[C@H]2c3cc(NS(=O)(=O)c4ccc(F)cc4)ccc3O[C@H]2[C@H](CO)O1)NCc1ccc(Cl)cc1`, the AC50 in [18] is > 39 µM (inactive); in assay [16], 6.82 µM (active).

For `O=C(Nc1cccnc1)c1cccs1`, the IC50 in [15] is recorded as 38.4 µM (not active); in [20], > 50 µM (not active). Also, the AC50 in [21] was 6.6 µM (active).

For `CCOC(=O)C1=C(O)/C(=C\c2ccc(CNC(=O)C(=O)Nc3ccccc3)o2)N=C1C`, the IC50 was 5.9 µM (inconclusive) in assay [12]; 8.55 µM (active) in assay [22]; 5.73 µM (active) in assay [11]; 1.95 µM (not active) in assay [13]; < 1.56 µM (active) in assay [14].

The values above are taken from ChEMBL document CHEMBL1201862, “PubChem BioAssay data set” (2004).
